Results: PubChem BioAssay AID1963836 (Molecular Pharmacology Branch, DTP, NCI, 2024)

Tested on: 857933-349-R-J2-PDC complex spheroid viability
Assay: Anticancer human tumor 857933-349-R-J2-PDC patient-derived colon adenocarcinoma cell line growth inhibition [POLQ]
Conditions: for IC50: curve of first compound; for viability, T/C: stronger effect = lower value; active = viability on the fitted dose curve at most 10% of control; inactive = the rest
Summary of the method: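 Complex spheroid viability model combining PDC tumour cells with endothelial (HUVEC) and MSC stromal cells. Novobiocin, ART-558 or RP6685 were tested singly and in combination with standard and investigational anticancer drugs. Each was titrated in half-log steps from near clinical Cmax, or from 10 microM where Cmax was unknown.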

[1] = second compound 0.0316 µM, first compound 0.00316 µM
[2] = second compound 0.0316 µM, first compound 0.01 µM
[3] = second compound 0.0316 µM, first compound 0.0316 µM
[4] = second compound 0.0316 µM, first compound 0.1 µM
[5] = second compound 0.1 µM, first compound 0.00316 µM
[6] = second compound 0.1 µM, first compound 0.01 µM
[7] = second compound 0.1 µM, first compound 0.0316 µM
[8] = second compound 0.1 µM, first compound 0.1 µM
[9] = second compound 0.316 µM, first compound 0.00316 µM
[10] = second compound 0.316 µM, first compound 0.01 µM
[11] = second compound 0.316 µM, first compound 0.0316 µM
[12] = second compound 0.316 µM, first compound 0.1 µM
[13] = second compound 1 µM, first compound 0.00316 µM
[14] = second compound 1 µM, first compound 0.01 µM
[15] = second compound 1 µM, first compound 0.0316 µM
[16] = second compound 1 µM, first compound 0.1 µM
[17] = second compound 3.16 µM, first compound 0.00316 µM
[18] = second compound 3.16 µM, first compound 0.01 µM
[19] = second compound 3.16 µM, first compound 0.0316 µM
[20] = second compound 3.16 µM, first compound 0.1 µM
[21] = second compound 10 µM, first compound 0.00316 µM
[22] = second compound 10 µM, first compound 0.01 µM
[23] = second compound 10 µM, first compound 0.0316 µM
[24] = second compound 10 µM, first compound 0.1 µM
[25] = second compound 0.0316 µM, first compound 0.316 µM
[26] = second compound 0.0316 µM, first compound 1 µM
[27] = second compound 0.1 µM, first compound 0.316 µM
[28] = second compound 0.1 µM, first compound 1 µM
[29] = second compound 0.316 µM, first compound 0.316 µM
[30] = second compound 0.316 µM, first compound 1 µM
[31] = second compound 1 µM, first compound 0.316 µM
[32] = second compound 1 µM, first compound 1 µM
[33] = second compound 3.16 µM, first compound 0.316 µM
[34] = second compound 3.16 µM, first compound 1 µM
[35] = second compound 10 µM, first compound 0.316 µM
[36] = second compound 10 µM, first compound 1 µM
[37] = second compound 0.0316 µM, first compound 3.16 µM
[38] = second compound 0.0316 µM, first compound 10 µM
[39] = second compound 0.1 µM, first compound 3.16 µM
[40] = second compound 0.1 µM, first compound 10 µM
[41] = second compound 0.316 µM, first compound 3.16 µM
[42] = second compound 0.316 µM, first compound 10 µM
[43] = second compound 1 µM, first compound 3.16 µM
[44] = second compound 1 µM, first compound 10 µM
[45] = second compound 3.16 µM, first compound 3.16 µM
[46] = second compound 3.16 µM, first compound 10 µM
[47] = second compound 10 µM, first compound 3.16 µM
[48] = second compound 10 µM, first compound 10 µM
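Also: spheroids exposed to compounds for seven days before readout.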

CC[C@@]1(O)C(=O)OCc2c1cc1n(c2=O)Cc2cc3c(CN(C)C)c(O)ccc3nc2-1 + COC1C(OC(N)=O)C(O)C(Oc2ccc3c(O)c(NC(=O)c4ccc(O)c(CC=C(C)C)c4)c(=O)oc3c2C)OC1(C)C
> 100 nM: IC50 (second compound 0.0316 µM) | IC50 (second compound 0.316 µM) | IC50 (second compound 1 µM) | IC50 (second compound 3.16 µM) | IC50 (second compound 10 µM)
inactive: viability, T/C (second compound 0.0316 µM, first compound 0.000316 µM) 117% | viability, T/C (second compound 0.0316 µM, first compound 0.001 µM) 107% | viability, T/C [1] 97.6% | viability, T/C [2] 84.8% | viability, T/C [3] 83% | viability, T/C [4] 50.7% | viability, T/C (second compound 0.1 µM, first compound 0.000316 µM) 105% | viability, T/C (second compound 0.1 µM, first compound 0.001 µM) 93.3% | viability, T/C [5] 88.5% | viability, T/C [6] 80% | viability, T/C [7] 71% | viability, T/C [8] 44.2% | viability, T/C (second compound 0.316 µM, first compound 0.000316 µM) 120% | viability, T/C (second compound 0.316 µM, first compound 0.001 µM) 86% | viability, T/C [9] 94.4% | viability, T/C [10] 76.1% | viability, T/C [11] 88.5% | viability, T/C [12] 50.4% | viability, T/C (second compound 1 µM, first compound 0.000316 µM) 138% | viability, T/C (second compound 1 µM, first compound 0.001 µM) 83.5% | viability, T/C [13] 86% | viability, T/C [14] 72% | viability, T/C [15] 87.1% | viability, T/C [16] 49.7% | viability, T/C (second compound 3.16 µM, first compound 0.000316 µM) 128% | viability, T/C (second compound 3.16 µM, first compound 0.001 µM) 102% | viability, T/C [17] 79.4% | viability, T/C [18] 90.7% | viability, T/C [19] 65.9% | viability, T/C [20] 44.3% | viability, T/C (second compound 10 µM, first compound 0.000316 µM) 136% | viability, T/C (second compound 10 µM, first compound 0.001 µM) 123% | viability, T/C [21] 69.3% | viability, T/C [22] 96.3% | viability, T/C [23] 81.6% | viability, T/C [24] 45.4%
80.7 nM: IC50 (second compound 0.1 µM)

CCc1c2c(nc3ccc(O)cc13)-c1cc3c(c(=O)n1C2)COC(=O)[C@]3(O)CC + COC1C(OC(N)=O)C(O)C(Oc2ccc3c(O)c(NC(=O)c4ccc(O)c(CC=C(C)C)c4)c(=O)oc3c2C)OC1(C)C
9.42 nM: IC50 (second compound 10 µM)
12.5 nM: IC50 (second compound 1 µM)
17.5 nM: IC50 (second compound 0.316 µM)
19.4 nM: IC50 (second compound 0.1 µM)
active: viability, T/C [34] 6.77% | viability, T/C [36] 4.37%
15.8 nM: IC50 (second compound 3.16 µM)
inactive: viability, T/C [1] 84.5% | viability, T/C [2] 71.7% | viability, T/C [3] 32.1% | viability, T/C [4] 25.3% | viability, T/C [25] 17.5% | viability, T/C [26] 5.52% | viability, T/C [5] 88.3% | viability, T/C [6] 76.1% | viability, T/C [7] 29.7% | viability, T/C [8] 20.2% | viability, T/C [27] 14.1% | viability, T/C [28] 4.89% | viability, T/C [9] 92.3% | viability, T/C [10] 71.7% | viability, T/C [11] 26.3% | viability, T/C [12] 17.3% | viability, T/C [29] 15.2% | viability, T/C [30] 5.5% | viability, T/C [13] 89% | viability, T/C [14] 56.6% | viability, T/C [15] 22.9% | viability, T/C [16] 16.7% | viability, T/C [31] 16.2% | viability, T/C [32] 5.68% | viability, T/C [17] 84.8% | viability, T/C [18] 62.8% | viability, T/C [19] 29.8% | viability, T/C [20] 22.4% | viability, T/C [33] 12.5% | viability, T/C [21] 80.6% | viability, T/C [22] 42.7% | viability, T/C [23] 35% | viability, T/C [24] 16.2% | viability, T/C [35] 12.2%
19.9 nM: IC50 (second compound 0.0316 µM)

Nc1ccn(C2OC(CO)C(O)C2(F)F)c(=O)n1 (stereo not drawn) + COC1C(OC(N)=O)C(O)C(Oc2ccc3c(O)c(NC(=O)c4ccc(O)c(CC=C(C)C)c4)c(=O)oc3c2C)OC1(C)C
148 nM: IC50 (second compound 0.316 µM)
inactive: viability, T/C [3] 68.6% | viability, T/C [4] 63.7% | viability, T/C [25] 30.3% | viability, T/C [26] 17.6% | viability, T/C [37] 12.9% | viability, T/C [38] 11.4% | viability, T/C [7] 91.6% | viability, T/C [8] 63.3% | viability, T/C [27] 26.3% | viability, T/C [28] 17.3% | viability, T/C [39] 11.3% | viability, T/C [40] 11.4% | viability, T/C [11] 67.3% | viability, T/C [12] 64.5% | viability, T/C [29] 22.4% | viability, T/C [30] 16.8% | viability, T/C [41] 13.5% | viability, T/C [42] 10.9% | viability, T/C [15] 74.1% | viability, T/C [16] 68.5% | viability, T/C [31] 25.5% | viability, T/C [32] 19.6% | viability, T/C [43] 14.5% | viability, T/C [44] 7.53% | viability, T/C [19] 82.1% | viability, T/C [20] 59.4% | viability, T/C [33] 25.8% | viability, T/C [34] 16.8% | viability, T/C [45] 12.8% | viability, T/C [46] 11.8% | viability, T/C [23] 77.7% | viability, T/C [24] 65.6% | viability, T/C [35] 28.2% | viability, T/C [36] 14.9% | viability, T/C [47] 16.3% | viability, T/C [48] 11.8%
162 nM: IC50 (second compound 10 µM)
164 nM: IC50 (second compound 1 µM)
159 nM: IC50 (second compound 0.0316 µM)
138 nM: IC50 (second compound 3.16 µM)
152 nM: IC50 (second compound 0.1 µM)

O=c1[nH]cc(F)c(=O)[nH]1 + COC1C(OC(N)=O)C(O)C(Oc2ccc3c(O)c(NC(=O)c4ccc(O)c(CC=C(C)C)c4)c(=O)oc3c2C)OC1(C)C
2560 nM: IC50 (second compound 10 µM)
2760 nM: IC50 (second compound 3.16 µM)
1960 nM: IC50 (second compound 0.0316 µM)
2220 nM: IC50 (second compound 1 µM)
2270 nM: IC50 (second compound 0.316 µM)
inactive: viability, T/C [3] 81.7% | viability, T/C [4] 110% | viability, T/C [25] 125% | viability, T/C [26] 71.1% | viability, T/C [37] 45.5% | viability, T/C [38] 24.6% | viability, T/C [7] 87.3% | viability, T/C [8] 91.5% | viability, T/C [27] 92.2% | viability, T/C [28] 58.1% | viability, T/C [39] 44.7% | viability, T/C [40] 30.3% | viability, T/C [11] 99.3% | viability, T/C [12] 87.2% | viability, T/C [29] 88.8% | viability, T/C [30] 70.9% | viability, T/C [41] 41% | viability, T/C [42] 28.4% | viability, T/C [15] 109% | viability, T/C [16] 92.1% | viability, T/C [31] 97.3% | viability, T/C [32] 63.8% | viability, T/C [43] 44.5% | viability, T/C [44] 30% | viability, T/C [19] 79.7% | viability, T/C [20] 86.3% | viability, T/C [33] 82.3% | viability, T/C [34] 85.3% | viability, T/C [45] 45.5% | viability, T/C [46] 29.3% | viability, T/C [23] 108% | viability, T/C [24] 74.4% | viability, T/C [35] 76.3% | viability, T/C [36] 76.2% | viability, T/C [47] 42.2% | viability, T/C [48] 29.3%
1640 nM: IC50 (second compound 0.1 µM)
